Two molecules from PMC2367043, “Effects of Ursolic Acid and its Analogues on Soybean 15-Lipoxygenase Activity and the Proliferation Rate of A human Gastric Tumour Cell Line” (Mediators of Inflammation, 1994) can be followed below.

For orientation: IC50 means the concentration at which inhibition is half-maximal.

Like-named read-outs stand apart in the source and are kept apart here.

For the experiment, the target named is T1, soybean 15-lipoxygenase (Glycine max, UniProt P08170).
T1 construct: gene LOX1.1
T1 sequence (P08170 1-839): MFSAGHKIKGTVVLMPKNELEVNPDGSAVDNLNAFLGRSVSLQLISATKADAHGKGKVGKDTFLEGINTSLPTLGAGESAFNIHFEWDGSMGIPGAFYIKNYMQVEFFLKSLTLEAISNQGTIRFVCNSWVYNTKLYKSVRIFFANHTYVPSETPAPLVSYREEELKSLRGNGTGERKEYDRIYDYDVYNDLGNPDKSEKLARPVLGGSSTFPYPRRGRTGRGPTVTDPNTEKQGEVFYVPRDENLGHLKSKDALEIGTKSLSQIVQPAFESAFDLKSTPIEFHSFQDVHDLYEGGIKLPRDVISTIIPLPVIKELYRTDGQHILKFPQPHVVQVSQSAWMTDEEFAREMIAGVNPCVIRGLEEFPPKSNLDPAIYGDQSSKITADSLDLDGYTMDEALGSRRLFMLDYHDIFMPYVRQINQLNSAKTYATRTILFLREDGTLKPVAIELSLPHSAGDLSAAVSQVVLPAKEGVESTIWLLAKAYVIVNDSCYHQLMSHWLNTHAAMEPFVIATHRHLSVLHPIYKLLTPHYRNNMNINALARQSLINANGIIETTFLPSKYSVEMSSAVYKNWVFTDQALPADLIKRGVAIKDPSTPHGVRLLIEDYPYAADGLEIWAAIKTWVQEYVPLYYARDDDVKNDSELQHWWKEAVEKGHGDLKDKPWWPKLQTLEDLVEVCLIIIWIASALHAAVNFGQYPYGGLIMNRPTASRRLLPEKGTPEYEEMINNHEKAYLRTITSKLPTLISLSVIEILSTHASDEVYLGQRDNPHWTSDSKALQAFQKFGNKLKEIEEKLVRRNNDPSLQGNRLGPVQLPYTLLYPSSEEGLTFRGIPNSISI
In words: spectrophotometric assay at […] nm of […](S)-HPODE formation from linoleic acid, pH […]. The format is biochemical.

Take `CC1(C)CC[C@]2(C(=O)O)CC[C@]3(C)C(=CC[C@@H]4[C@@]5(C)CC[C@H](O)C(C)(C)[C@@H]5CC[C@]43C)[C@@H]2C1` [oleanolic acid]: the IC50 turned out to be 265 µM.

In the case of `C[C@H]1[C@H](C)CC[C@]2(C(=O)O)CC[C@]3(C)C(=CC[C@@H]4[C@@]5(C)CC[C@H](O)C(C)(C)[C@@H]5CC[C@]43C)[C@H]12` [ursolic acid], the IC50 (read-out: IC50) was found to be 175 µM.
